Like-named read-outs stand apart in the source and are kept apart here.
Key:
[1] = system: Human Platelets; assay: Inhibition of Fibrinogen-Mediated Platelet Aggregation; format: cell-based; details: thrombin-activated human platelets; for inhibition at 25 µM / Inhibition of Fibrinogen Mediated Platelet Aggregation % inhibition at 25 μM: 25 μM compound; for IC50: human fibrinogen added, rate of aggregation
Experimental: II. Inhibition of Fibrinogen--Mediated Platelet Aggregation, which is essentially based on the method described in Blood, Vol. 66, No. 4, Oct. 1985, pp. 846-952, and is as follows.
Human Platelets were isolated from freshly drawn whole blood and were suspended in 0.14 mol/L NaCl, 2.7 mmol/L […], 12 mmol/L NaHCO3, 0.42 mmol/L Na2 HPO4, 0.55 mmol/L glucose, and 5 mmol/L Hepes, pH 7.35 at 2×10^8 platelets/ml. The suspension was incubated at 37° C. An aliquot of 0.4 ml of platelet suspension was activated by human thrombin at a final concentration of 2 μg/ml of thrombin for one minute. After one minute the reaction was stopped by a thrombin inhibitor. Serial dilution of the compound being tested was then added to the activated platelet, the reaction was allowed to proceed for one minute, followed by the addition of human fibrinogen at a final concentration of […] of fibrinogen. Platelet aggregation was then recorded by an aggregometer. Rate of aggregation was used to calculate IC50.

[2] = target: T1, fibrinogen binding to thrombin-stimulated platelets (GPIIb/IIIa fibrinogen receptor) (Homo sapiens, UniProt P05106+P08514); assay: Inhibition of Radiolabeled (125I) Fibrinogen Binding Assay; details: read-out: Inhibition of 125I-Fibrinogen (binding to) Platelet IC50
T1 construct: endogenous in cells; host or cells: washed platelets stimulated with human alpha-thrombin
T1 sequence (P08514 32-887 limits assumed): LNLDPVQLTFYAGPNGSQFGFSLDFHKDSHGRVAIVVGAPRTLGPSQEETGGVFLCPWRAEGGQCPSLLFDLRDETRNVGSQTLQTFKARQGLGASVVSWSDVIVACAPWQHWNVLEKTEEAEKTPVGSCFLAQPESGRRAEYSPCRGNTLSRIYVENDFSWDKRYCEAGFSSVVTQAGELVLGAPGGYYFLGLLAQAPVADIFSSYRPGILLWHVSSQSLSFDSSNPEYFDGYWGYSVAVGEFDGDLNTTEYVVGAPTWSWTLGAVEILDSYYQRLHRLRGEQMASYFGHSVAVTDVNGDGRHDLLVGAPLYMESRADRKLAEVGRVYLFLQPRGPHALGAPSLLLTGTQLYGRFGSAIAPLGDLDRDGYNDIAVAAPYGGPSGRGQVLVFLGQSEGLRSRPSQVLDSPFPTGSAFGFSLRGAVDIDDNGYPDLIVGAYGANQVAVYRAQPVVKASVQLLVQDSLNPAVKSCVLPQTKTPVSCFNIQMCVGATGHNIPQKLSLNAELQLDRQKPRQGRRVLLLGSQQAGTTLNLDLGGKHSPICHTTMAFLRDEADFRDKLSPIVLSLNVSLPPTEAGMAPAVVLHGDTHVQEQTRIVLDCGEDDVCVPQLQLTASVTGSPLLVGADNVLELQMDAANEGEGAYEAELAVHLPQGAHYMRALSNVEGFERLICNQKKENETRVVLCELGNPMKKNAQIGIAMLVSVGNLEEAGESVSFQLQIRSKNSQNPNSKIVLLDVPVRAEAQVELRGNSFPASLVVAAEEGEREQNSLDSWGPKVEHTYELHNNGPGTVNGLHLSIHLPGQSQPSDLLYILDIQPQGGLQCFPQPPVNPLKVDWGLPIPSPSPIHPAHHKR
T1 sequence (P08514 891-1039 limits assumed): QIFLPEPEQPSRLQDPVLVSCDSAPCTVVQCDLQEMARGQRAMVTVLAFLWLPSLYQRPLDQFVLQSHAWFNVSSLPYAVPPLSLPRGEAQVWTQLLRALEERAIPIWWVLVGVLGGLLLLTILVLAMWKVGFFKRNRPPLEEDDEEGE
T1 sequence (P05106 27-788): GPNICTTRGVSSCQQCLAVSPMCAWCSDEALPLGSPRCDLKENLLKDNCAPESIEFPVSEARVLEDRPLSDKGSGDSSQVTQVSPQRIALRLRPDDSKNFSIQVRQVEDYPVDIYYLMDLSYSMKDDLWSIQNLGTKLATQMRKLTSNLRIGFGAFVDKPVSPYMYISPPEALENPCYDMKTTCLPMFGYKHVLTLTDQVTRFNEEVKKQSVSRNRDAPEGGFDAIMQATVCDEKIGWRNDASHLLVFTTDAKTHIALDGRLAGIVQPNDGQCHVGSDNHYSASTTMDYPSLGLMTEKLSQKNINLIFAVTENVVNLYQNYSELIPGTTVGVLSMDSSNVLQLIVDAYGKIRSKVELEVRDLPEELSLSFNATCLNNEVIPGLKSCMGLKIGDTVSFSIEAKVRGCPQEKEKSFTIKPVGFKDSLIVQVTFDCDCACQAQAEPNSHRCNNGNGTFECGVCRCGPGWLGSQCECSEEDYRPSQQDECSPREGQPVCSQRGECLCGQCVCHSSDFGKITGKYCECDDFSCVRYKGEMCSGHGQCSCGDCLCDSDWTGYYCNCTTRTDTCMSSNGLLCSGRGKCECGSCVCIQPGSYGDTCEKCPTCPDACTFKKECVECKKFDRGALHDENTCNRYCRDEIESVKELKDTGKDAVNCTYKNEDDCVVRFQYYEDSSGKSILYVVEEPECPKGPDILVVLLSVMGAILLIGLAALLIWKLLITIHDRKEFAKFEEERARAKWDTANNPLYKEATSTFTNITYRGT
Experimental: I. Inhibition of Radiolabeled (^125 I) Fibrinogen Binding Assay, which is essentially based on the method described in Proc. Natl. Acad. Sci. USA Vol. 83, pp. 5708-5712, Aug. 1986, and is as follows.
Platelets are washed free of plasma constituents by the albumin density-gradient technique. In each experimental mixture platelets in modified Tyrode's buffer are stimulated with human α-thrombin at 22°-25° C. for 10 minutes (3.125×10" platelets per liter and thrombin at […]). Hirudin is then added at a 25-fold excess for 5 minutes before addition of the radiolabeled ligand and any competing ligand. After these additions, the final platelet count in the mixture is 1×10"/liter. After incubation for an additional 30 minutes at 22°-25° C., bound and free ligand are separated by centrifuging 50 μl of the mixture through 300 μl of 20% sucrose at 12,000 xg for 4 minutes. The platelet pellet is then separated from the rest of the mixture to determine platelet-bound radioactivity. Nonspecific binding is measured in mixtures containing an excess of unlabeled ligand. When binding curves are analyzed by Scatchard analysis, nonspecific binding is derived as a fitted parameter from the binding isotherm by means of a computerized program. To determine the concentration of each inhibitory compound necessary to inhibit 50% of fibrinogen binding to thrombin-stimulated platelets (IC50), each compound is tested at 0.176 μgmol/liter (60 μg/ml). The IC50 is derived by plotting residual fibrinogen binding against the logarithm of the sample compound's concentration.

[3] = thrombin-stimulated washed platelets, 22-25° C.
[4] = no inhibition at concentrations of 50 μM or lower

Row | IC50 ([1]; Platelet) [µM] | IC50 [2, 3] [µM] | IC50 [2, 4] [µM] | SMILES | inhibition at 25 µM ([1]; Platelet) [%] | Inhibition of Fibrinogen Mediated Platelet Aggregation % inhibition at 25 μM [1] [%] | IC50 [1] [µM]
1 |  | 20 |  | CC(C)[C@H](NC(=O)[C@H](CC(=O)O)NC(=O)Cc1ccc(NC(=N)N)cc1)C(=O)O [N-(4-guanidinophenylacetoyl)-L-aspartyl-L-valine] | 43 |  | 
2 |  | 22 |  | CC(C)[C@H](NC(=O)[C@H](CC(=O)O)NC(=O)c1ccc(CNC(=N)N)cc1)C(=O)O [N-(4-guanidinomethylbenzoyl)-L-aspartyl-L-valine] | 16 |  | 
3 | 30.2 |  | ≥ 50 | CC(C)[C@H](NC(=O)[C@H](CC(=O)O)NC(=O)c1cccc(CNC(=N)N)c1)C(=O)O [N-(3-guanidinomethylbenzoyl)-L-aspartyl-L-valine] | 53 |  | 
4 | 33.1 | 115 |  | CC(C)[C@H](NC(=O)[C@H](CC(=O)O)NC(=O)c1cccc(CCNC(=N)N)c1)C(=O)O [N-[3-(2-guanidinoethyl)benzoyl]-L-aspartyl-L-valine] | 37 |  | 

More lines, now with the values behind:

Row | SMILES | IC50 ([1]; Platelet) [µM] | IC50 [2, 3] [µM] | IC50 [2, 4] [µM] | inhibition at 25 µM ([1]; Platelet) [%] | Inhibition of Fibrinogen Mediated Platelet Aggregation % inhibition at 25 μM [1] [%] | IC50 [1] [µM]
5 | CC(C)[C@H](NC(=O)[C@H](CC(=O)O)NC(=O)CCc1ccc(NC(=N)N)cc1)C(=O)O [3-(4-guanidinophenyl)propanoyl-L-aspartyl-L-valine] | 14 | 4.5 |  | 65 |  | 
6 | CC(C)[C@H](NC(=O)[C@H](CC(=O)O)NC(=O)c1ccc(NC(=N)N)cc1)C(=O)O [4-Guanidinobenzoyl-L-aspartyl-L-valine, N-(4-quanidinobenzoyl)-L-aspartyl-L-valine] |  |  |  |  | 33.0 | 
7 | CC(C)[C@H](NC(=O)[C@H](CC(=O)O)NC(=O)Cc1cccc(CNC(=N)N)c1)C(=O)O [3-Guanidinomethylphenylacetoyl-L-aspartyl-L-valine] |  |  |  | 15.2 |  | 
8 | CC(C)[C@H](NC(=O)[C@H](CC(=O)O)NC(=O)C=Cc1ccc(NC(=N)N)cc1)C(=O)O [4-Guanidino cinnamoyl-L-aspartyl-L-valine] | 2.8 | 0.25 |  | 25 |  | 
9 | CC(C)[C@H](NC(=O)[C@H](CC(=O)O)NC(=O)c1cccc(NC(=N)N)c1)C(=O)O [3-Guanidinobenzoyl-L-aspartyl-L-valine, N-(3-guanidinobenzoyl)-L-aspartyl-L-valine] |  |  | ≥ 50 | 6.3 |  | 
10 | CC(C)[C@H](NC(=O)[C@H](CC(=O)O)NC(=O)c1ccc(CCNC(=N)N)cc1)C(=O)O [4-(2-quanidinoethyl)benzoyl]-L-aspartyl-L-valine] |  | 10.9 |  |  | 85.0 | 7.7
11 | CC(C)[C@H](NC(=O)[C@H](CC(=O)O)NC(=O)Cc1ccc(CNC(=N)N)cc1)C(=O)O [4-Guanidinomethyl phenylacetoyl-L-aspartyl-L-valine] |  |  | ≥ 50 | 42 |  | 
12 | CC(C)[C@H](NC(=O)[C@H](CC(=O)O)NC(=O)c1cccc(CCCNC(=N)N)c1)C(=O)O [3-(3-Guanidinopropyl)benzoyl-L-aspartyl-L-valine] |  |  | ≥ 50 | 52 |  | 
13 | CC(C)[C@H](NC(=O)[C@H](CC(=O)O)NC(=O)c1ccc(CCCNC(=N)N)cc1)C(=O)O [4-(3-Guanidinopropyl)benzoyl-L-aspartyl-L-valine] | 7.6 |  |  | 83.3 |  | 

Source: patent US5086069A, “Anti-thrombotic peptide and pseudopeptide derivatives” (Rorer Pharmaceutical Corporation, priority 1990, dated 1992)
